According to patent US9469642B2, “Purinone compounds as kinase inhibitors” (Pharmacyclics LLC, priority 2012, dated 2016):

How the values were obtained:
Format in all cases: biochemical
LCK = LCK (Homo sapiens, UniProt P06239); experiment: Kinase panel inhibition, LCK (one of the methods of Example 76a, 76b, 76c)
How it was run: (§1)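 BTK (0.5 nM) and LCK (6 nM) by TR-FRET, ATP at Km, biotinylated peptide, pH 7.4, 1 h; Ki(app) converted to IC50. Alternatively, full-length His6-BTK (1 nM) by mobility shift, 16 μM ATP (Km), 1 μM FAM peptide, pH 7.5, 1 h; IC50 from 12-point 4-parameter fit. Radiometric filter-binding option also used.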

EGFR = EGFR (Homo sapiens, UniProt P00533); experiment: Kinase panel inhibition, EGFR (one of the methods of Example 76a, 76b, 76c)
How it was run: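 Kinase activity was measured by TR-FRET in 50 μL reactions in 96-well plates. Enzyme, inhibitor, ATP at its Km and a biotinylated peptide substrate were incubated for one hour at pH 7.4 in buffer containing 20 mM Tris, 50 mM NaCl, MgCl2, MnCl2, 1 mM DTT, 0.1 mM EDTA, 0.01% bovine serum albumin, 0.005% Tween-20 and 10% DMSO. Reactions were stopped with EDTA in Lance buffer. Streptavidin-APC and Eu-labeled p-Tyr100 antibody were added for one hour. The 665/615 nm emission ratio gave activity. IC50 was derived from Ki(app) fitted with BatchKi.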

BTK = molecular target: T1, BTK (Homo sapiens, UniProt Q06187); experiment: Btk in vitro inhibitory activity (kinase assay by one of Methods A, B or C)
T1 construct: purified from insect cells as a full-length construct containing a N-terminal 6×-His tag; His6 (N); host or cells: insect cells (baculovirus Sf21)
How it was run: as §1

T1 sequence (Q06187 whole entry): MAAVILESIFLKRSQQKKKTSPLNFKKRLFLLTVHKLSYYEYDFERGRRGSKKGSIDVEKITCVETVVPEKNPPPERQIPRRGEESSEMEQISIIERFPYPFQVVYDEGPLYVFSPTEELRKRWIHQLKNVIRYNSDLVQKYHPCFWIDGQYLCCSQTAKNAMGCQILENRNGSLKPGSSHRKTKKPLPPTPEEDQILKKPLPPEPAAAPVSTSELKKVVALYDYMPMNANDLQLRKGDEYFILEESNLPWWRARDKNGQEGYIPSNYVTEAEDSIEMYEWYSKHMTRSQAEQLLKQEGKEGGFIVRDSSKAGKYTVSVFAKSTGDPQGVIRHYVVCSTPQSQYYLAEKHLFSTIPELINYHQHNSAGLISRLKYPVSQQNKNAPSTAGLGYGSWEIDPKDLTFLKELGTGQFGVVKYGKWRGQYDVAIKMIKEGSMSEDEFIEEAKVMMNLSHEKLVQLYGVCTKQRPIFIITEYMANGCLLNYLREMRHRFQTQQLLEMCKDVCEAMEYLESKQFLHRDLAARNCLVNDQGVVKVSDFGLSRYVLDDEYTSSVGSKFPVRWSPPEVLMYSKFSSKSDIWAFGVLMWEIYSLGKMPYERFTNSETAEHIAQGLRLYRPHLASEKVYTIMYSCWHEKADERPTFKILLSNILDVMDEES
EGFR, sequence (P00533 25-1210, species assumed): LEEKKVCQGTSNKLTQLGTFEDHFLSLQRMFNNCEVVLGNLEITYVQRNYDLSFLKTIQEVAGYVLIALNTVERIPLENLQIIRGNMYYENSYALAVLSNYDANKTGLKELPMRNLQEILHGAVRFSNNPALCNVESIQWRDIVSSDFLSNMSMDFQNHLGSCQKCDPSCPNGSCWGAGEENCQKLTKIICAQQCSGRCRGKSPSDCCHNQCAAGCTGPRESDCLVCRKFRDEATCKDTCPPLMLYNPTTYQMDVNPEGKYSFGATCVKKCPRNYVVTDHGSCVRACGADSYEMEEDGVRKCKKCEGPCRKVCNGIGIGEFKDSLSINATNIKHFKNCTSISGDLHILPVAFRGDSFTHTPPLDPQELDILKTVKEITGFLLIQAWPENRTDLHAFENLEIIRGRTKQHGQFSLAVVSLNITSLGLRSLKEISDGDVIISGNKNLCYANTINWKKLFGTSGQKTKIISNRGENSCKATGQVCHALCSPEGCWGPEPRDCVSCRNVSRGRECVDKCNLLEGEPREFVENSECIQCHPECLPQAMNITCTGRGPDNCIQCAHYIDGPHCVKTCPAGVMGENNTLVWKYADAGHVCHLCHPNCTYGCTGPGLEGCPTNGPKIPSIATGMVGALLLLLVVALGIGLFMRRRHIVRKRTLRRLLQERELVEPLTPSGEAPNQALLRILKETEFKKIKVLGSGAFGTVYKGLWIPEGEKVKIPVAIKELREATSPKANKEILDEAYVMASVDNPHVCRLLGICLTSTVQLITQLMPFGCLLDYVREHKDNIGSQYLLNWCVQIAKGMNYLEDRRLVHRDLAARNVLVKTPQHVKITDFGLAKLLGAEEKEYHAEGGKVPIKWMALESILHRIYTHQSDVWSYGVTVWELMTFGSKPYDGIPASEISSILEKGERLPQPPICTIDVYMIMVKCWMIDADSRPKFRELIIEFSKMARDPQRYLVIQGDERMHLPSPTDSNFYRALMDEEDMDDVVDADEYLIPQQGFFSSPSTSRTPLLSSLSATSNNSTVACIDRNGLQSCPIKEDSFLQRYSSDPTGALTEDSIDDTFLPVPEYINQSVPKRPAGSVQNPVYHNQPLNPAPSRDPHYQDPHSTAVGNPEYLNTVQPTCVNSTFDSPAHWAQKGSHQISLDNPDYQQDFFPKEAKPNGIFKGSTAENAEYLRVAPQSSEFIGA
LCK, sequence (P06239 whole entry, species assumed): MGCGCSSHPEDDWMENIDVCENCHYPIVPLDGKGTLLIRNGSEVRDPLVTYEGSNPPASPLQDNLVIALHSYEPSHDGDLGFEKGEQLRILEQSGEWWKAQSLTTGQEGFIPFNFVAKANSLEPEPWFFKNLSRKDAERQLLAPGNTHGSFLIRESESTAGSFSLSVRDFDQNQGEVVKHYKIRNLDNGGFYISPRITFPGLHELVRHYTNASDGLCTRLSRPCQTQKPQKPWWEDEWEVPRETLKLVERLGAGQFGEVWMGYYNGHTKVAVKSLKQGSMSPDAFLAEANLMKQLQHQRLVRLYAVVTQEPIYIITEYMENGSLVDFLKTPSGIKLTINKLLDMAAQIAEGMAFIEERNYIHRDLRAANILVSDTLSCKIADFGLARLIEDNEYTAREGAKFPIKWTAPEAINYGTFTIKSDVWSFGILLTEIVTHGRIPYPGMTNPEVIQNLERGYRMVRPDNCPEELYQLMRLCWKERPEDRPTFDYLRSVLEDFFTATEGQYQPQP

SMILES | IC50 (LCK) [nM] | IC50 (EGFR) [nM] | IC50 (BTK) [nM]
CN(C)C/C=C/C(=O)Nc1cccc(-n2c(=O)n(-c3ccc(Cl)cc3)c3c(N)ncnc32)c1 [Compound 14, (E)-N-(3-(6-amino-7-(4-chlorophenyl)-8-oxo-7H-purin-9(8H)-yl)phenyl)-4-(dimethylamino)but-2-enamide] | 1000 to 10000 | 1000 to 10000 | < 100
COc1cc(N(C)C(=O)/C=C/CN(C)C2CC2)cc(-n2c(=O)n(-c3ccc(Oc4ccccc4)cc3)c3c(N)ncnc32)c1 [Compound 224, (E)-N-(3-(6-amino-8-oxo-7-(4-phenoxyphenyl)-7H-purin-9(8H)-yl)-5-methoxyphenyl)-4-(cyclopropyl(methyl)amino)-N-methylbut-2-enamide] | 1000 to 10000 | 1000 to 10000 | < 100
CN(C/C=C/C(=O)Nc1cccc(-n2c(=O)n(-c3ccc(Oc4ccccc4)cc3)c3c(N)ncnc32)c1)C1CC1 [Compound 9, (E)-N-(3-(6-amino-8-oxo-7-(4-phenoxyphenyl)-7H-purin-9(8H)-yl)phenyl)-4-(cyclopropyl(methyl)amino)but-2-enamide] | 100 to 1000 | < 100 | < 100
Cc1cc(Oc2ccccc2)ccc1-n1c(=O)n(-c2cccc(N(C)C(=O)/C=C/CN(C)C3CC3)c2)c2ncnc(N)c21 [Compound 290, (E)-N-(3-(6-amino-7-(2-methyl-4-phenoxyphenyl)-8-oxo-7H-purin-9(8H)-yl)phenyl)-4-(cyclopropyl(methyl)amino)-N-methylbut-2-enamide] | 1000 to 10000 | 1000 to 10000 | < 100
COc1cc(-n2c(=O)n(-c3cccc(N(C)C(=O)/C=C/CN(C)C4CC4)c3)c3ncnc(N)c32)ccc1Oc1ccccc1 [Compound 285, (E)-N-(3-(6-amino-7-(3-methoxy-4-phenoxyphenyl)-8-oxo-7H-purin-9(8H)-yl)phenyl)-4-(cyclopropyl(methyl)amino)-N-methylbut-2-enamide] | 1000 to 10000 | 1000 to 10000 | < 100
COCCOc1ccc(-n2c(=O)n(-c3ccc(C)c(OC)c3)c3c(N)ncnc32)cc1NC(=O)/C=C/CN(C)C [Compound 112, (E)-N-(5-(6-amino-7-(3-methoxy-4-methylphenyl)-8-oxo-7H-purin-9(8H)-yl)-2-(2-methoxyethoxy)phenyl)-4-(dimethylamino)but-2-enamide] | 1000 to 10000 | 1000 to 10000 | < 100
CN(C)C/C=C/C(=O)N(C)c1ccc(-n2c(=O)n(-c3ccc(Oc4ccccc4)cc3)c3c(N)ncnc32)cc1 [Compound 43, (E)-N-(4-(6-amino-8-oxo-7-(4-phenoxyphenyl)-7H-purin-9(8H)-yl)phenyl)-4-(dimethylamino)-N-methylbut-2-enamide] | 100 to 1000 | 1000 to 10000 | < 100
CN(C/C=C/C(=O)Nc1cccc(-n2c(=O)n(-c3ccc(Oc4cccc(F)c4)cc3)c3c(N)ncnc32)c1)[C@H]1CCOC1 [Compound 316, (S,E)-N-(3-(6-amino-7-(4-(3-fluorophenoxy)phenyl)-8-oxo-7H-purin-9(8H)-yl)phenyl)-4-(methyl(tetrahydrofuran-3-yl)amino)but-2-enamide] | 1000 to 10000 | 100 to 1000 | < 100
COc1cc(-n2c(=O)n(-c3cccc(NC(=O)/C=C/CN(C)C)c3)c3ncnc(N)c32)ccc1C [Compound 17, (E)-N-(3-(6-amino-7-(3-methoxy-4-methylphenyl)-8-oxo-7H-purin-9(8H)-yl)phenyl)-4-(dimethylamino)but-2-enamide] | 1000 to 10000 | 1000 to 10000 | < 100
CN(C(=O)/C=C/CN(C)[C@H]1CCOC1)c1cccc(-n2c(=O)n(-c3ccc(Oc4ccccc4)cc3)c3c(N)ncnc32)c1 [Compound 123, (S,E)-N-(3-(6-amino-8-oxo-7-(4-phenoxyphenyl)-7H-purin-9(8H)-yl)phenyl)-N-methyl-4-(methyl(tetrahydrofuran-3-yl)amino)but-2-enamide] | 1000 to 10000 | 1000 to 10000 | < 100
COc1cc(-n2c(=O)n(-c3cccc(N(C)C(=O)/C=C/CN(C)C4CC4)c3)c3ncnc(N)c32)ccc1OCc1ccccc1 [Compound 295, (E)-N-(3-(6-amino-7-(4-(benzyloxy)-3-methoxyphenyl)-8-oxo-7H-purin-9(8H)-yl)phenyl)-4-(cyclopropyl(methyl)amino)-N-methylbut-2-enamide] | > 10000 | > 10000 | < 100
CN(C(=O)/C=C/CN(C)C1CC1)c1cccc(-n2c(=O)n(-c3ccc(OCc4ccccc4)cc3)c3c(N)ncnc32)c1 [Compound 234, (E)-N-(3-(6-amino-7-(4-(benzyloxy)phenyl)-8-oxo-7H-purin-9(8H)-yl)phenyl)-4-(cyclopropyl(methyl)amino)-N-methylbut-2-enamide] | 1000 to 10000 | 1000 to 10000 | < 100
COc1cc(-n2c(=O)n(-c3ccc(N(C)C(=O)/C=C/CN(C)C)cc3)c3ncnc(N)c32)ccc1C [Compound 54, (E)-N-(4-(6-amino-7-(3-methoxy-4-methylphenyl)-8-oxo-7H-purin-9(8H)-yl)phenyl)-4-(dimethylamino)-N-methylbut-2-enamide] | 1000 to 10000 | 1000 to 10000 | < 100
CN(C(=O)/C=C/CN(C)[C@H]1CCOC1)c1cccc(-n2c(=O)n(-c3ccc(Oc4cccc(F)c4)cc3)c3c(N)ncnc32)c1 [Compound 309, (S,E)-N-(3-(6-amino-7-(4-(3-fluorophenoxy)phenyl)-8-oxo-7H-purin-9(8H)-yl)phenyl)-N-methyl-4-(methyl(tetrahydrofuran-3-yl)amino)but-2-enamide] | 1000 to 10000 | 1000 to 10000 | < 100
COc1ccc(-n2c(=O)n(-c3ccc(Oc4cccc(F)c4)cc3)c3c(N)ncnc32)cc1N(C)C(=O)/C=C/CN(C)C1CC1 [Compound 312, (E)-N-(5-(6-amino-7-(4-(3-fluorophenoxy)phenyl)-8-oxo-7H-purin-9(8H)-yl)-2-methoxyphenyl)-4-(cyclopropyl(methyl)amino)-N-methylbut-2-enamide] | > 10000 | > 10000 | < 100
COc1cc(-n2c(=O)n(-c3cccc(N(C)C(=O)/C=C/CN(C)C)c3)c3ncnc(N)c32)ccc1C [Compound 30, (E)-N-(3-(6-amino-7-(3-methoxy-4-methylphenyl)-8-oxo-7H-purin-9(8H)-yl)phenyl)-4-(dimethylamino)-N-methylbut-2-enamide] | > 10000 | > 10000 | < 100
